Reference: patent US10966426B2, “Herbicidal compositions comprising phenylpyrimidines” (BASF SE, priority 2016, dated 2021)

Experiments:
Format in all cases: in vivo
Lolium multiflorum [1] = assay: greenhouse post-emergence treatment, LOLMU; details: Lolium multiflorum, 504 h, 21 DAT, LOLMU
Outline: (§1)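 Visual damage score 0–100 (0 = normal growth; 100 = no emergence/above-ground parts destroyed), read 2–4 wk post-treatment. Loamy sand, ~3.0% humus; seedlings grown in place or transplanted days before spraying; water as solvent; 10-25° C. or 20-35° C. per species. Combination expectations by Colby: E=X+Y−(X·Y/100).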

Setaria viridis [2] = assay: greenhouse post-emergence treatment, SETVI; details: Setaria viridis, 504 h, SETVI, solo pyroxasulfone (WG 85%) 15 gai/ha, 21 DAT
Outline: as §1

Polygonum convolvulus = assay: greenhouse post-emergence treatment, POLCO; details: Fallopia convolvulus, 504 h, POLCO, 21 DAT
Outline: (§2)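 Each species was grown separately and treated once it reached 3 to 15 cm, using actives suspended or emulsified in water. Plants were kept at 10-25° C. or 20-35° C., depending on species. Damage is a 0–100 rating taken during 2 to 4 weeks.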

Brachiaria decumbens [3] = assay: greenhouse post-emergence treatment, BRADC; details: Urochloa decumbens, 504 h, 21 DAT, BRADC
Outline: (§3)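 Visual herbicidal effect (0–100) recorded over a 2 to 4 week test period after foliar treatment at plant heights of 3 to 15 cm. Expected combination effects derived by the Colby formula from single-component effects X and Y.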

Avena fatua [4] = assay: greenhouse post-emergence treatment, AVEFA; details: Avena fatua, 504 h, 21 DAT, AVEFA
Outline: as §1

Ambrosia elatior [5] = assay: greenhouse post-emergence treatment, AMBEL; details: Ambrosia artemisiifolia, 504 h, 21 DAT, AMBEL
Method: (§4) The culture containers used were plastic pots containing loamy sand with approximately 3.0% of humus as substrate. The seeds of the test plants were sown separately for each species.
(§5) For the post-emergence treatment, the test plants were grown to a plant height of from 3 to 15 cm, depending on the plant habit, and only then treated with the active compounds which had been suspended or emulsified in water. To this end, the test plants were either sown directly, and grown in the same containers, or they were first grown separately as seedlings and transplanted into the test containers a few days prior to treatment.
(§6) Depending on the species, the plants were kept at 10-25° C. and 20-35° C., respectively.
(§7) The test period extended over 2 to 4 weeks. During this time, the plants were tended and their response to the individual treatments was evaluated.
(§8) Evaluation was carried out using a scale from 0 to 100. 100 means no emergence of the plants, or complete destruction of at least the above-ground parts, and 0 means no damage or normal course of growth. A good herbicidal activity is given at values of at least 70, and very good herbicidal activity is given at values of at least 85.
(§9) The respective stated components A and B, and if appropriate, C were formulated as a 10% by weight strength emulsion concentrate and, with addition of the amount of solvent system, introduced into the spray liquor used for applying the active compound. In the examples, the solvent used was water.
(§10) In the examples below, using the method of S. R. Colby (1967) “Calculating synergistic and antagonistic responses of herbicide combinations”, Weeds 15, p. 22ff., the value E, which is expected if the activity of the individual active compounds is only additive, was calculated. E=X+Y−(X·Y/100) where X=effect in percent using herbicide A at an application rate a; • Y=effect in percent using herbicide B at application rate b; • E=expected effect (in %) of herbicide A+herbicide B at application rates a+b.

Papaver rhoeas = assay: greenhouse post-emergence treatment, PAPRH; details: Papaver rhoeas, 504 h, PAPRH, 21 DAT
Outline: as §2

Matricaria chamomilla = assay: greenhouse post-emergence treatment, MATCH; details: Matricaria chamomilla, 504 h, MATCH, 21 DAT
Outline: as §2

Digitaria sanguinalis [6] = assay: greenhouse post-emergence treatment, DIGSA; details: Digitaria sanguinalis, 504 h, DIGSA, 21 DAT
Outline: as §1

Stellaria media = assay: greenhouse post-emergence treatment, STEME; details: Stellaria media, 504 h, pyroxasulfone solo 30 gai/ha, 21 DAT, STEME
Outline: as §3

Echinocloa crus-galli = assay: greenhouse post-emergence treatment, ECHCG; details: Echinochloa crus-galli, 504 h, pyroxasulfone solo 60 gai/ha, 21 DAT, ECHCG, read-out: % activity
Method: as §4, §5, §6, §7, §8, §9, §10

Poa annua = assay: greenhouse post-emergence treatment, POAAN; details: Poa annua, 504 h, pyroxasulfone solo 15 gai/ha, 21 DAT, POAAN
Outline: as §3

Alopecurus myosuroides = assay: greenhouse post-emergence treatment, ALOMY; details: Alopecurus myosuroides, 504 h, 21 DAT, ALOMY
Outline: as §1

Galium aparine [7] = assay: greenhouse post-emergence treatment, GALAP; details: Galium aparine, 504 h, GALAP, 21 DAT
Outline: as §2

Bromus sterilis = assay: greenhouse post-emergence treatment, BROST; details: Bromus sterilis, 504 h, 21 DAT, BROST
Outline: as §1

Brachiaria decumbens [8] = assay: greenhouse pre-emergence treatment, BRADC; details: 20 DAT, BRADC
Description: as §4
(§11) For the pre-emergence treatment, the active compounds, suspended or emulsified in water, were applied directly after sowing by means of finely distributing nozzles. The containers were irrigated gently to promote germination and growth and subsequently covered with transparent plastic hoods until the plants had rooted. This cover caused uniform germination of the test plants unless this was adversely affected by the active compounds.
as §6, §7, §8, §9, §10

Digitaria sanguinalis [9] = assay: greenhouse pre-emergence treatment, DIGSA; details: 4.5 gai/ha (SC 500 g/l), 20 DAT, DIGSA, Table X2
Description: as §4, §11, §6, §7, §8, §9, §10

Galium aparine [10] = assay: greenhouse pre-emergence treatment, GALAP; details: 20 DAT, GALAP; for % activity, solo application: Table X2
Description: as §4, §11, §6, §7, §8, §9, §10

Helianthus annuus = assay: greenhouse pre-emergence treatment, HELAN; details: 20 DAT, HELAN
Description: as §4, §11, §6, §7, §8, §9, §10

Avena fatua [11] = assay: greenhouse pre-emergence treatment, AVEFA; details: AVEFA, trifludimoxazin solo 36 gai/ha, 20 DAT
Description: as §4, §11, §6, §7, §8, §9, §10

Setaria viridis [12] = assay: greenhouse pre-emergence treatment, SETVI; details: 4.5 gai/ha (SC 500 g/l), 20 DAT, SETVI, Table X2
Description: as §4, §11, §6, §7, §8, §9, §10

Ambrosia elatior [13] = assay: greenhouse pre-emergence treatment, AMBEL; details: 20 DAT, AMBEL, Table X2
Description: as §4, §11, §6, §7, §8, §9, §10

Lolium multiflorum [14] = assay: greenhouse pre-emergence treatment, LOLMU; details: LOLMU, trifludimoxazin solo 36 gai/ha, 20 DAT
Description: as §4, §11, §6, §7, §8, §9, §10

[15] = solo pyroxasulfone (WG 85%) 7.5 gai/ha
[16] = solo pyroxasulfone (WG 85%) 15 gai/ha
[17] = solo pyroxasulfone (WG 85%) 30 gai/ha
[18] = solo pyroxasulfone (WG 85%) 60 gai/ha

Q: Which results are given for Cn1nc(C(F)(F)F)c(CS(=O)(=O)C2=NOC(C)(C)C2)c1OC(F)F [pyroxasulfone]?
A: inhibition at […] (Lolium multiflorum [1]; pyroxasulfone solo 7.5 gai/ha): 40%; inhibition at 15 g/ha (Lolium multiflorum [1]; pyroxasulfone solo 15 gai/ha): 65%; inhibition at 30 g/ha (Lolium multiflorum [1]; pyroxasulfone solo 30 gai/ha): 70%; pest or weed control at 15 g/ha (Setaria viridis [2]): 40%; pest or weed control at […] (Polygonum convolvulus; [15]): 30%; pest or weed control at 15 g/ha (Polygonum convolvulus; [16]): 30%; pest or weed control at 30 g/ha (Polygonum convolvulus; [17]): 30%; pest or weed control at 60 g/ha (Polygonum convolvulus; [18]): 30%; inhibition at […] (Polygonum convolvulus; pyroxasulfone solo 7.5 gai/ha): 30%; inhibition at 15 g/ha (Polygonum convolvulus; pyroxasulfone solo 15 gai/ha): 30%; inhibition at 30 g/ha (Polygonum convolvulus; pyroxasulfone solo 30 gai/ha): 30%; inhibition at 60 g/ha (Polygonum convolvulus; pyroxasulfone solo 60 gai/ha): 30%; inhibition at […] (Brachiaria decumbens [3]; pyroxasulfone solo 7.5 gai/ha): 0%; inhibition at 30 g/ha (Brachiaria decumbens [3]; pyroxasulfone solo 30 gai/ha, read-out: % activity): 55%; inhibition at 60 g/ha (Brachiaria decumbens [3]; pyroxasulfone solo 60 gai/ha, read-out: % activity): 75%; inhibition at […] (Avena fatua [4]; pyroxasulfone solo 7.5 gai/ha): 25%; inhibition at 15 g/ha (Avena fatua [4]; pyroxasulfone solo 15 gai/ha): 30%; inhibition at 30 g/ha (Ambrosia elatior [5]; pyroxasulfone solo 30 gai/ha): 20%; inhibition at 60 g/ha (Ambrosia elatior [5]; pyroxasulfone solo 60 gai/ha): 60%; pest or weed control at […] (Papaver rhoeas; [15]): 0%; pest or weed control at 15 g/ha (Papaver rhoeas; [16]): 0%; pest or weed control at 30 g/ha (Papaver rhoeas; [17]): 30%; pest or weed control at 60 g/ha (Papaver rhoeas; [18]): 60%; inhibition at 15 g/ha (Papaver rhoeas; pyroxasulfone solo 15 gai/ha): 0%; inhibition at 60 g/ha (Papaver rhoeas; pyroxasulfone solo 60 gai/ha): 60%; pest or weed control at 15 g/ha (Matricaria chamomilla; [16]): 0%; inhibition at 15 g/ha (Matricaria chamomilla; pyroxasulfone solo 15 gai/ha): 0%; pest or weed control at […] (Digitaria sanguinalis [6]; [15]): 0%; pest or weed control at 15 g/ha (Digitaria sanguinalis [6]; [16]): 0%; inhibition at 30 g/ha (Stellaria media): 0%; inhibition at 60 g/ha (Echinocloa crus-galli): 80%; inhibition at 15 g/ha (Poa annua): 70%; inhibition at […] (Alopecurus myosuroides; pyroxasulfone solo 7.5 gai/ha): 35%; inhibition at 30 g/ha (Alopecurus myosuroides; pyroxasulfone solo 30 gai/ha): 65%; pest or weed control at 15 g/ha (Galium aparine [7]; [16]): 70%; inhibition at […] (Galium aparine [7]; pyroxasulfone solo 7.5 gai/ha): 40%; inhibition at […] (Bromus sterilis; pyroxasulfone solo 7.5 gai/ha): 20%; inhibition at 15 g/ha (Bromus sterilis; pyroxasulfone solo 15 gai/ha): 40%

Q: What does the source list for C#CCN1C(=O)C(F)(F)Oc2cc(F)c(-n3c(=O)n(C)c(=S)n(C)c3=O)cc21 [trifludimoxazin]?
A: % activity, solo application (Brachiaria decumbens [8]; 9 gai/ha (SC 500 g/l), Table X2): 45%; % activity (Brachiaria decumbens [8]; trifludimoxazin solo 18 gai/ha): 50%; % activity (Brachiaria decumbens [8]; trifludimoxazin solo 36 gai/ha): 80%; % activity, solo application (Digitaria sanguinalis [9]): 50%; % activity, solo application (Galium aparine [10]; 4.5 gai/ha (SC 500 g/l)): 0%; % activity, solo application (Galium aparine [10]; 9 gai/ha (SC 500 g/l)): 0%; % activity, solo application (Galium aparine [10]; 18 gai/ha (SC 500 g/l)): 0%; % activity, solo application (Galium aparine [10]; 36 gai/ha (SC 500 g/l)): 40%; % activity (Galium aparine [10]; trifludimoxazin solo 4.5 gai/ha): 0%; % activity (Galium aparine [10]; trifludimoxazin solo 9 gai/ha): 0%; % activity (Galium aparine [10]; trifludimoxazin solo 18 gai/ha): 0%; % activity (Galium aparine [10]; trifludimoxazin solo 36 gai/ha): 40%; % activity, solo application (Helianthus annuus; 18 gai/ha (SC 500 g/l), Table X2): 0%; % activity (Helianthus annuus; trifludimoxazin solo 18 gai/ha): 0%; % activity (Helianthus annuus; trifludimoxazin solo 36 gai/ha): 30%; % activity (Avena fatua [11]): 50%; % activity, solo application (Setaria viridis [12]): 75%; % activity, solo application (Ambrosia elatior [13]; 4.5 gai/ha (SC 500 g/l)): 0%; % activity, solo application (Ambrosia elatior [13]; 9 gai/ha (SC 500 g/l)): 50%; % activity (Lolium multiflorum [14]): 75%
